Measured values: patent EP1925615B1, “Method of fluorine-18 labelling of tropane derivatives” (Orphachem, priority 2006, dated 2008)

Experiments:
[1] = target: dopamine transporter (DAT); details: dopamine transporter (DAT) ligand; cited from earlier work
[2] = target: norepinephrine transporter (Homo sapiens, UniProt P23975); details: cited from earlier work
[3] = target: serotonine transporter (Homo sapiens, UniProt P31645); details: cited from earlier work
[4] = Chemical and radiochemical stability of the radiotracer preparation by HPLC; type: physicochemical; details: preparation ready for i.v. injection (physiological saline, ethanol below 10%); HPLC D at regular 15-min intervals during 120 min
Method: Quality controls of [^18F]LBT-999 ([^18F]-10) were performed on an aliquot of the preparation ready for i.v. injection. The radiotracer preparation was a clear and colourless solution with a measured pH between 5 and 7.
Quality control of [^18F]LBT-999 ([^18F]-10). The radiotracer preparation was visually inspected for clarity, absence of colour and particulates. An aliquot of the preparation was removed for determination of pH using standard pH-paper. Chemical and radiochemical purities were also assessed on this aliquot by HPLC (HPLC D), with a sample of authentic 10 (tR : 2.25 min) which synthesis and characterization were disclosed in Dollé F et al., 2006. Particular attention was paid to the absence of non-radioactive precursor 9 (tR: 3.45 min). Chemical and radiochemical stability of the entire preparation was tested by HPLC (HPLC D) at regular 15-min intervals during 120 min. Specific radioactivity of the radiotracer was calculated from three consecutive HPLC (HPLC D) analyses (average) and determined as follows: The area of the UV absorbance peak corresponding to the radiolabelled product was measured (integrated) on the HPLC chromatogram and compared to a standard curve relating mass to UV absorbance.

Sequence of serotonine transporter (P31645 whole entry): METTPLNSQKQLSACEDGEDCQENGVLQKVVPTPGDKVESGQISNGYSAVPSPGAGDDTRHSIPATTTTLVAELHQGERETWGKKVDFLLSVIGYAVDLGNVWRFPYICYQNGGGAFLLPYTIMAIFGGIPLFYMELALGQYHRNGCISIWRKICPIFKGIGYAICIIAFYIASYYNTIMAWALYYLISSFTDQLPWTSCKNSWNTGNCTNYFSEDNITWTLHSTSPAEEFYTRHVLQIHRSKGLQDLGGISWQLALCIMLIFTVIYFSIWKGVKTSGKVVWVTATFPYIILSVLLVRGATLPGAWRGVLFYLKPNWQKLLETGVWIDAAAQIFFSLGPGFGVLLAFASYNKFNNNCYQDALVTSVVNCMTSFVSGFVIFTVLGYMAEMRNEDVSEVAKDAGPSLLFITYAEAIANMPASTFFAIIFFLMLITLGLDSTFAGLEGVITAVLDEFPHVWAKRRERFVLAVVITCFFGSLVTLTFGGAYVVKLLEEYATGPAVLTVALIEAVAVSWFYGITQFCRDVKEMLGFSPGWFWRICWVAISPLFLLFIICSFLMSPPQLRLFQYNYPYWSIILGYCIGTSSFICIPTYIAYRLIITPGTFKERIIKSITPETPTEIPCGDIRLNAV
Sequence of norepinephrine transporter (P23975 whole entry): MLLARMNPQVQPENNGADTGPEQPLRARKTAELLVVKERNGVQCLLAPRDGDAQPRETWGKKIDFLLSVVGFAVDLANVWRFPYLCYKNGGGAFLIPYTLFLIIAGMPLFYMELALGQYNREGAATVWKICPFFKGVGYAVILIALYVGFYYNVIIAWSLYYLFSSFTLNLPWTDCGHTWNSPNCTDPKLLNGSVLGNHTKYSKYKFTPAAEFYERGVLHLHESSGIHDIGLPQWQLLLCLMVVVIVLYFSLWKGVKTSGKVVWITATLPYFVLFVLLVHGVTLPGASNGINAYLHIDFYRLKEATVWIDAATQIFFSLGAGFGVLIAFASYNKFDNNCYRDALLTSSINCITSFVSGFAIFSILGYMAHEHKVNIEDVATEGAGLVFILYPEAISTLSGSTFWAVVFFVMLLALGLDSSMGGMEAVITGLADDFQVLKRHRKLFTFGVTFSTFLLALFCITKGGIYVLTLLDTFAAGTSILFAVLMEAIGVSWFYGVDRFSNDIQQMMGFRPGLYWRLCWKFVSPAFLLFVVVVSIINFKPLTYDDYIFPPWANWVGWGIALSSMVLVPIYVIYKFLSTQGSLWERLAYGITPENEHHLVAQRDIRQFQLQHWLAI

SMILES | Kd [1] | IC50 [2] | IC50 [3] | chemically and radiochemically stable [4]
COC(=O)[C@H]1[C@@H](c2ccc(C)cc2)C[C@@H]2CC[C@H]1N2C/C=C/CF [LBT-999, 8-((E)-4-fluoro-but-2-enyl)-3β-p-tolyl-8-aza-bicyclo[3.2.1]octane-2β-carboxylic acid methyl ester] | 0.009 µM | > 1 µM | > 1 µM | 
COC(=O)[C@H]1[C@@H](c2ccc(C)cc2)C[C@@H]2CC[C@H]1N2C/C=C/C[18F] [[^18F]LBT-999, 8-((E)-4-[^18F]fluoro-but-2-enyl)-3β-p-tolyl-8-aza-bicyclo-[3.2.1]octane-2β-carboxylic acid methyl ester] |  |  |  | at least 120 minutes
